Measurements published in ChEMBL document CHEMBL5625249, “Optimization and antifungal activity of quinoline derivatives linked to chalcone moiety combined with FLC against Candida albicans” (Eur J Med Chem, 2023).
Activity calls are given as the source filed them. The rule behind the calls is not given here.

Tests used:
[1] = system: Candida albicans; experiment: Antifungal activity against clinical FLC-resistant Candida albicans 3511 measured after 24 hrs by microdilution method; assay type: functional
[2] = system: Candida albicans; experiment: Synergistic antifungal activity against clinical FLC-resistant Candida albicans 800 assessed as fractional inhibitory concentration index measured after 24 hrs by microdilution method; assay type: functional
[3] = system: Candida albicans; experiment: Antifungal activity against Clinical FLC-resistant Candida albicans 23 measured after 24 hrs by microdilution method; assay type: functional
[4] = system: Candida albicans; experiment: In vivo antifungal activity against FLC-resistant Candida albicans ATCC 14053 infected in Balb/c mouse assessed as restoration of kidney morphology at 7.5 to 15 mg/kg, ig measured after 6 days in presence of fluconazole by H and E staining based histopathological analysis; assay type: functional, organism-based; conditions: dose 7.5-15 mg/kg, time 6.0 day
[5] = system: Candida albicans; experiment: In vivo antifungal activity against FLC-resistant Candida albicans ATCC 14053 infected in Balb/c mouse assessed as reduction in lung fungal load at 7.5 to 15 mg/kg, ig measured after 6 days in presence of fluconazole; assay type: functional, organism-based; conditions: dose 7.5-15 mg/kg, time 6.0 day
[6] = system: Candida albicans; experiment: Synergistic antifungal activity against clinical FLC-resistant Candida albicans 3511 measured after 24 hrs by microdilution method; assay type: functional
[7] = system: Candida albicans; experiment: Synergistic antifungal activity against FLC-resistant Candida albicans ATCC 14053 assessed as inhibition of hyphal formation by measuring down regulation of CYR1 gene expression at 1 ug/ml measured after 16 to 18 hrs in presence of fluconazole by qRT-PCR analysis; assay type: functional, organism-based; conditions: dose 1.0 µg/ml, time 16-18 hrs
[8] = system: Candida albicans; experiment: Synergistic antifungal activity against FLC-resistant Candida albicans ATCC 14053 cultured in SD +10% FBS liquid medium assessed as inhibition of hyphal formation at 1 ug/ml measured after 4 to 8 hrs in presence of fluconazole by inverted microscopy; assay type: functional, organism-based; conditions: dose 1.0 µg/ml, time 4-8 hrs
[9] = system: Candida albicans; experiment: Synergistic antifungal activity against clinical FLC-resistant Candida albicans 808 measured after 24 hrs by microdilution method; assay type: functional
[10] = system: Candida albicans; experiment: Synergistic antifungal activity against clinical FLC-resistant Candida albicans 381 measured after 24 hrs by microdilution method; assay type: functional
[11] = system: Candida albicans; experiment: In vivo antifungal activity against FLC-resistant Candida albicans ATCC 14053 infected in Balb/c mouse assessed as reduction in liver fungal load at 7.5 to 15 mg/kg, ig measured after 6 days in presence of fluconazole; assay type: functional, organism-based; conditions: dose 7.5-15 mg/kg, time 6.0 day
[12] = system: Candida albicans; experiment: In vivo antifungal activity against FLC-resistant Candida albicans ATCC 14053 infected in Balb/c mouse assessed as removal of colonized fungi at 15 mg/kg, ig measured after 6 days by H and E staining based histopathological analysis; assay type: functional, organism-based; conditions: time 6.0 day
[13] = system: Candida albicans; experiment: Induction of mitochondrial membrane potential loss in FLC-resistant Candida albicans ATCC 14053 at 1 ug/mL measured after 16 to 18 hrs in presence of fluconazole by JC-1 staining based fluorescence assay; assay type: functional, organism-based; conditions: dose 1.0 µg/ml, time 16-18 hrs
[14] = system: Candida albicans; experiment: Synergistic antifungal activity against FLC-resistant Candida albicans ATCC 10231 assessed as fractional inhibitory concentration index measured after 24 hrs by microdilution method; assay type: functional
[15] = system: Candida albicans; experiment: Synergistic antifungal activity against FLC-resistant Candida albicans ATCC 14053 cultured in spider medium assessed as inhibition of hyphal formation at 1 ug/ml measured after 2 hrs in presence of fluconazole by inverted microscopy; assay type: functional, organism-based; conditions: dose 1.0 µg/ml
[16] = system: Candida albicans; experiment: Synergistic antifungal activity against Clinical FLC-resistant Candida albicans 23 assessed as fractional inhibitory concentration index measured after 24 hrs in presence of fluconazole by microdilution method; assay type: functional
[17] = system: Candida albicans; experiment: Synergistic antifungal activity against FLC-sensitive Candida albicans SC5314 measured after 24 hrs in presence of fluconazole by microdilution method; assay type: functional
[18] = system: Candida albicans; experiment: Synergistic antifungal activity against FLC-resistant Candida albicans ATCC 14053 cultured in SD +10% FBS liquid medium assessed as inhibition of hyphal formation at 1 ug/ml measured after 4 to 8 hrs in presence of fluconazole and dibutyryl-cAMP by inverted microscopy; assay type: functional, organism-based; conditions: dose 1.0 µg/ml, time 4-8 hrs
[19] = system: Candida albicans; experiment: Synergistic antifungal activity against FLC-resistant Candida albicans ATCC 14053 cultured in spider medium assessed as inhibition of hyphal formation at 1 ug/ml measured after 4 to 8 hrs in presence of fluconazole by inverted microscopy; assay type: functional, organism-based; conditions: dose 1.0 µg/ml, time 4-8 hrs
[20] = system: Candida albicans; experiment: Antifungal activity against clinical FLC-resistant Candida albicans 3816 measured after 24 hrs by microdilution method; assay type: functional
[21] = system: Candida albicans; experiment: In vivo antifungal activity against FLC-resistant Candida albicans ATCC 14053 infected in Balb/c mouse assessed as reduction in kidney fungal load at 7.5 to 15 mg/kg, ig measured after 6 days in presence of fluconazole; assay type: functional, organism-based; conditions: dose 7.5-15 mg/kg, time 6.0 day
[22] = system: Candida albicans; experiment: Synergistic antifungal activity against clinical FLC-resistant Candida albicans 808 assessed as fractional inhibitory concentration index measured after 24 hrs by microdilution method; assay type: functional
[23] = system: Candida albicans; experiment: Antifungal activity against FLC-resistant Candida albicans ATCC 14053 at 1 ug/mL measured over 48 hrs by time-killing assay; assay type: functional, organism-based; conditions: dose 1.0 µg/ml
[24] = system: Candida albicans; experiment: In vivo antifungal activity against FLC-resistant Candida albicans ATCC 14053 infected in Balb/c mouse assessed as survival rate at 15 mg/kg, ig measured daily for 6 days (Rvb < 20%); assay type: functional; conditions: ATCC 14053, po, 144 h, time 6 day
[25] = system: Candida albicans; experiment: Synergistic antifungal activity against FLC-resistant Candida albicans ATCC 14053 assessed as inhibition of rhodamine 6G efflux incubated for 4 hrs under shaking condition in presence of fluconazole by Rhodamine 6G staining based fluorescence assay; assay type: functional, organism-based
[26] = system: Candida albicans; experiment: Synergistic antifungal activity against clinical FLC-resistant Candida albicans 187 assessed as fractional inhibitory concentration index measured after 24 hrs in presence of fluconazole by microdilution method; assay type: functional
[27] = system: Candida albicans; experiment: Synergistic antifungal activity against FLC-resistant Candida albicans ATCC 14053 assessed as inhibition of hyphal formation by measuring down regulation of EFG1 gene expression at 1 ug/ml measured after 16 to 18 hrs in presence of fluconazole by qRT-PCR analysis; assay type: functional, organism-based; conditions: dose 1.0 µg/ml, time 16-18 hrs
[28] = system: Candida albicans; experiment: Synergistic antifungal activity against clinical FLC-resistant Candida albicans 799 assessed as fractional inhibitory concentration index measured after 24 hrs by microdilution method; assay type: functional
[29] = system: Candida albicans; experiment: In vivo antifungal activity against FLC-resistant Candida albicans ATCC 14053 infected in Balb/c mouse assessed as reduction in infiltration of inflammatory cells at 7.5 to 15 mg/kg, ig measured after 6 days in presence of fluconazole by H and E staining based histopathological analysis; assay type: functional, organism-based; conditions: dose 7.5-15 mg/kg, time 6.0 day
[30] = system: Candida albicans; experiment: Synergistic antifungal activity against clinical FLC-resistant Candida albicans 550 measured after 24 hrs by microdilution method; assay type: functional
[31] = system: Candida albicans; experiment: Antifungal activity against FLC-resistant Candida albicans ATCC 14053 cultured in spider medium assessed as inhibition of hyphal formation at 1 ug/ml measured after 2 hrs by inverted microscopy; assay type: functional, organism-based; conditions: dose 1.0 µg/ml
[32] = system: Candida albicans; experiment: Synergistic antifungal activity against clinical FLC-resistant Candida albicans 381 assessed as fractional inhibitory concentration index measured after 24 hrs by microdilution method; assay type: functional
[33] = system: Candida albicans; experiment: In vivo antifungal activity against FLC-resistant Candida albicans ATCC 14053 infected in Balb/c mouse assessed as survival rate at 7.5 to 15 mg/kg, ig measured daily for 6 days in presence of fluconazole (Rvb < 20%); assay type: functional; conditions: dose 7.5-15 mg/kg, time 6 day

Structure (SMILES): CN1CCN(c2nc3ccccc3cc2/C=C/C(=O)c2ccc(N3CCN(Cc4ccc(C(F)(F)F)cc4)CC3)cc2)CC1
- MIC80 [1]: > 40 µg/mL
- fractional inhibitory concentration index (FICI) [2]: 0.03
- MIC80 [3]: > 40 µg/mL
- Activity [4]: Active
- Activity [5]: inactive
- MIC80 [6]: 5.89 µg/mL
- inhibition [7]: Active
- inhibition [8]: Active
- MIC80 [9]: 0.38 µg/mL
- MIC80 [10]: 1.35 µg/mL
- Activity [11]: inactive
- Activity [12]: inactive
- Activity [13]: Active
- fractional inhibitory concentration index (FICI) [14]: 0.14
- inhibition [15]: inactive
- fractional inhibitory concentration index (FICI) [16]: 0.03
- MIC80 [17]: 0.99 µg/mL
- inhibition [18]: inactive
- inhibition [19]: Active
- MIC80 [20]: > 40 µg/mL
- Activity [21]: Active
- fractional inhibitory concentration index (FICI) [22]: 0.01
- Activity [23]: inactive
- survival at 15 mg/kg [24]: 30%
- inhibition [25]: Active
- fractional inhibitory concentration index (FICI) [26]: 0.01
- inhibition [27]: Active
- fractional inhibitory concentration index (FICI) [28]: 0.03
- Activity [29]: Active
- MIC80 [30]: 5.9 µg/mL
- inhibition [31]: inactive
- fractional inhibitory concentration index (FICI) [32]: 0.03
- Survival [33]: 90%
